Source: ChEMBL document CHEMBL4507258 (2021)

What was measured:
[1] = target: 5-hydroxytryptamine receptor 1A (Homo sapiens, UniProt P08908); experiment: GPCRScan assay: inhibition of 5-HT1A; parameters: radioligand conc. used [nm] 0.5 – 1.0, parental cells stable CHO
[2] = target: D(4) dopamine receptor (Homo sapiens, UniProt P21917); experiment: GPCRScan assay: inhibition of D4; parameters: radioligand conc. used [nm] 0.6 – 1.7, parental cells Stable HEK
[3] = target: 5-hydroxytryptamine receptor 2C (Homo sapiens) (UniProt P28335); details: Compound concentration 10.0 uM
Chain of 5-hydroxytryptamine receptor 2C (Homo sapiens) (P28335 whole entry): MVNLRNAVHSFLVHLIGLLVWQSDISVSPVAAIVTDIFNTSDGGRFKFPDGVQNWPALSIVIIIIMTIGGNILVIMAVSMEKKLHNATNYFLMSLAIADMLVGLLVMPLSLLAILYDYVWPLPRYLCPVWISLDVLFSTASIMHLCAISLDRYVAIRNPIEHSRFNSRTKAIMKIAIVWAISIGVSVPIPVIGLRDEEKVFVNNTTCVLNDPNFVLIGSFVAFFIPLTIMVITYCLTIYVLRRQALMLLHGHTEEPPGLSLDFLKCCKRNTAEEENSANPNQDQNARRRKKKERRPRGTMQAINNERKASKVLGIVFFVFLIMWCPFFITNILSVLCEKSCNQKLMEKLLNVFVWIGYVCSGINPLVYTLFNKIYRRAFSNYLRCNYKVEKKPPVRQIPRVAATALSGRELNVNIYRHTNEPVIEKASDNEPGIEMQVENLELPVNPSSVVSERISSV

[4] = target: Alpha-2C adrenergic receptor (Homo sapiens) (UniProt P18825); details: Compound concentration 10.0 uM
[5] = target: 5-hydroxytryptamine receptor 2B (Homo sapiens, UniProt P41595); experiment: GPCRScan assay: inhibition of 5-HT2B; parameters: radioligand conc. used [nm] 1.0 – 2.0, parental cells stable HEK
Chain of 5-hydroxytryptamine receptor 2B (P41595 whole entry): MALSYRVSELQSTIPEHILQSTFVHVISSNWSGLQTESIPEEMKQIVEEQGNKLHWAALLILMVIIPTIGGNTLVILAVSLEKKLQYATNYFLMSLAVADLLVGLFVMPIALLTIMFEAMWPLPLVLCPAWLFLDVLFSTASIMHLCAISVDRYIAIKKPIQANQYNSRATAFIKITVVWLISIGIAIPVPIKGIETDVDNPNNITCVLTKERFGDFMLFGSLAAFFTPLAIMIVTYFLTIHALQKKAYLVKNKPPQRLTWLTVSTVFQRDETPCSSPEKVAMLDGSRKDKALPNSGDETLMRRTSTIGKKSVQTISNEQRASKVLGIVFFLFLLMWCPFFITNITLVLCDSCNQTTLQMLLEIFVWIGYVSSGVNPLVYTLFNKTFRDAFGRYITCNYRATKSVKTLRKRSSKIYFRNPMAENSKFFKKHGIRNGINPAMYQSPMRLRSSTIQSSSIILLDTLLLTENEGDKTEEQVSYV

[6] = target: GABA-A receptor; anion channel (Homo sapiens) (UniProt P14867+P47870+P18507+P28472+P48169+Q99928+Q9UN88+P34903+O00591+O14764+Q8N1C3+P18505+P78334+P47869+P31644+Q16445); experiment: Benzodiazepine (central) CEREP ligand profiling; format: protein-complex assay; details: Compound concentration 10.0 uM
[7] = target: T1, Muscarinic acetylcholine receptor M2 (Homo sapiens) (UniProt P08172); experiment: Muscarinic M2 receptors (h) CEREP ligand profiling; details: Compound concentration 10.0 uM
T1 sequence (whole entry): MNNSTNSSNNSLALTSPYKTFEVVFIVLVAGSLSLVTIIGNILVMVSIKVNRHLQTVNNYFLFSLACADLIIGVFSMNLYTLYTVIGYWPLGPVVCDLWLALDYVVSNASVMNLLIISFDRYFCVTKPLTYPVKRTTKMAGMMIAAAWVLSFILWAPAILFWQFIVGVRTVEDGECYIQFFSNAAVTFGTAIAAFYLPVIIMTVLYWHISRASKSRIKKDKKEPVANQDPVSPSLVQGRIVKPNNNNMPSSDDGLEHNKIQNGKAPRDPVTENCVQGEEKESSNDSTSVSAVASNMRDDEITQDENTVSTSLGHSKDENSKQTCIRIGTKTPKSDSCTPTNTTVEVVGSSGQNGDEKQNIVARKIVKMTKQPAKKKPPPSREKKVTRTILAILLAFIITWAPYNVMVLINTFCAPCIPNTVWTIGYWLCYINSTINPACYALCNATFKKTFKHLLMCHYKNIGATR

[8] = target: Platelet-derived growth factor receptor (Homo sapiens) (UniProt P09619+P16234); experiment: Platlet-derived growth factor receptor CEREP ligand profiling; format: protein-complex assay; details: Compound concentration 10.0 uM
[9] = GABA receptor (non-selective) CEREP ligand profiling; details: Compound concentration 10.0 uM
[10] = target: Substance-K receptor (Homo sapiens) (UniProt P21452); experiment: Neurokinin A receptor (h) CEREP ligand profiling; details: Compound concentration 10.0 uM
Chain of Substance-K receptor (Homo sapiens) (P21452 whole entry): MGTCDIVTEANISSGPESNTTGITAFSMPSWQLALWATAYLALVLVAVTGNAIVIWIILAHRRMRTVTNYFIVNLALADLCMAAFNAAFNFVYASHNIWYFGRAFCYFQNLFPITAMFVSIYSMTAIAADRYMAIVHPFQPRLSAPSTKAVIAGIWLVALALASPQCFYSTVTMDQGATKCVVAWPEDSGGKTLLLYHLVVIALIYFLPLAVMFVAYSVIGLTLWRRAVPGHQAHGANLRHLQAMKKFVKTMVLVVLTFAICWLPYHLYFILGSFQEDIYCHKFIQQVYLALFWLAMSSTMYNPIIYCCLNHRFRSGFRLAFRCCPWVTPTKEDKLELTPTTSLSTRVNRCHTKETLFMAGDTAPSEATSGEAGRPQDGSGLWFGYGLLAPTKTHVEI

[11] = target: Substance-P receptor (Homo sapiens) (UniProt P25103); experiment: Neurokinin-1 receptor (h) CEREP ligand profiling; details: Compound concentration 10.0 uM
[12] = target: Sigma non-opioid intracellular receptor 1 (Homo sapiens, UniProt Q99720); experiment: sigma-Receptor (non-selective) CEREP ligand profiling; details: Compound concentration 10.0 uM
[13] = target: Calcitonin gene-related peptide type 1 receptor (Homo sapiens) (UniProt Q16602); experiment: Calcitonin gene-related peptide CEREP ligand profiling; details: Compound concentration 10.0 uM
Chain of Calcitonin gene-related peptide type 1 receptor (Homo sapiens) (Q16602 whole entry): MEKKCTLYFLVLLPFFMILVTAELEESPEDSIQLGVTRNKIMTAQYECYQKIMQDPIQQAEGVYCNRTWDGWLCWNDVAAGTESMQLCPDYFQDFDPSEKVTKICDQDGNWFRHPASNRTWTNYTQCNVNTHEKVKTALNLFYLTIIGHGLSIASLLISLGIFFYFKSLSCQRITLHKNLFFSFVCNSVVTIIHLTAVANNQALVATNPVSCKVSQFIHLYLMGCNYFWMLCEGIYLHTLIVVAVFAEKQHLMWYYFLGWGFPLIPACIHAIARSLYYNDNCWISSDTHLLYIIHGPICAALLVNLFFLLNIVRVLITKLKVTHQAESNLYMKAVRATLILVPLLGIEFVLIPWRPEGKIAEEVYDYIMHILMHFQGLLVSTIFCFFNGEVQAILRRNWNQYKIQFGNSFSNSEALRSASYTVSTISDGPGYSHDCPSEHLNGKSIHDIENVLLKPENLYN

[14] = target: Tumor necrosis factor (Homo sapiens) (UniProt P01375); experiment: Tumor necrosis factor-alpha CEREP ligand profiling; details: Compound concentration 10.0 uM
Chain of Tumor necrosis factor (Homo sapiens) (P01375 whole entry): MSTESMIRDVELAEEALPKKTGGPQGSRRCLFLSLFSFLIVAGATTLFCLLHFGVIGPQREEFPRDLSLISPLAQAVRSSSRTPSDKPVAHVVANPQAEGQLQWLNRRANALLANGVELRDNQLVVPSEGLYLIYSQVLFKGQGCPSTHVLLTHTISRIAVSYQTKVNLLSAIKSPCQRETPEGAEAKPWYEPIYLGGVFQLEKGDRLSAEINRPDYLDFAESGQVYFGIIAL

[15] = target: 5-hydroxytryptamine receptor 2A (Homo sapiens) (UniProt P28223); experiment: 5-Hydroxytryptamine2A (h) CEREP ligand profiling; details: Compound concentration 10.0 uM
[16] = target: D(1A) dopamine receptor (Homo sapiens) (UniProt P21728); experiment: Dopamine D1 receptor (h) CEREP ligand profiling; details: Compound concentration 10.0 uM
Chain of D(1A) dopamine receptor (Homo sapiens) (P21728 whole entry): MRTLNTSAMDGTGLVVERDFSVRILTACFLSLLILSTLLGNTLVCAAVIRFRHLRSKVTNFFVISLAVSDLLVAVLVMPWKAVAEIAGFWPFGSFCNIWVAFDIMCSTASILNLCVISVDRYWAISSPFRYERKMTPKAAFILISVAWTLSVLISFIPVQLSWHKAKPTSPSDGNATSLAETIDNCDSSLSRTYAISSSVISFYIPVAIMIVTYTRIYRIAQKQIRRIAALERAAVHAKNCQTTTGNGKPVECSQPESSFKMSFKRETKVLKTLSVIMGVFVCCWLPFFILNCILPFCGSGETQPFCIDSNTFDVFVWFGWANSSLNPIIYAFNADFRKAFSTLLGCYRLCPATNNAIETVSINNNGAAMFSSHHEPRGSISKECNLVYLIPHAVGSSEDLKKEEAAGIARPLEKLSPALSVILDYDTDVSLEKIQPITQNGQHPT

[17] = target: Sodium-dependent dopamine transporter (Homo sapiens) (UniProt Q01959); experiment: Dopamine uptake (h) CEREP ligand profiling; details: Compound concentration 10.0 uM
Chain of Sodium-dependent dopamine transporter (Homo sapiens) (Q01959 whole entry): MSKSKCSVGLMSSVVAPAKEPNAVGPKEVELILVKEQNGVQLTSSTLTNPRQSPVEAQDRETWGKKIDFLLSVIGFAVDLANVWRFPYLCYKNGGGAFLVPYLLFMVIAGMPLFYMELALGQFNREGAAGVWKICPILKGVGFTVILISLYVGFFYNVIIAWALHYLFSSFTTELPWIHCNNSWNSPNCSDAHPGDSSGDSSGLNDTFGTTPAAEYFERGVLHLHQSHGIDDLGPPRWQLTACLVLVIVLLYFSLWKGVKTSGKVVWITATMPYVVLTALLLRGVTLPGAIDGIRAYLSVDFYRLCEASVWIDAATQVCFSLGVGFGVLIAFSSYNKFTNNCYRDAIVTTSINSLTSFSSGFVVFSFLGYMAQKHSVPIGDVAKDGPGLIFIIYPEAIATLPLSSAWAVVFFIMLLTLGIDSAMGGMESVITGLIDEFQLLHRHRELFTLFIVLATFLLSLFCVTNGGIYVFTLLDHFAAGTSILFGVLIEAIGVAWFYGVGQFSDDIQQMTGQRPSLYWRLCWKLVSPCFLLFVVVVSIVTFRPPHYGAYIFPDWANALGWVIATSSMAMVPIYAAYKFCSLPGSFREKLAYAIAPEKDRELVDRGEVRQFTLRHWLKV

[18] = target: Type-1 angiotensin II receptor (Homo sapiens) (UniProt P30556); experiment: Angiotensin AT1 receptor (h) CEREP ligand profiling; details: Compound concentration 10.0 uM
[19] = target: GABA-A receptor; anion channel (Rattus norvegicus) (UniProt O09028+P15431+P18506+P18508+P19969+P20236+P23574+P23576+P28471+P28473+P30191+P62813+P63079+P63138+Q91ZM7+Q9ES14); details: Compound concentration 10.0 uM
[20] = target: Histamine H1 receptor (Homo sapiens, UniProt P35367); experiment: GPCRScan assay: inhibition of H1; parameters: radioligand conc. used [nm] 0.6 – 2.0, parental cells stable HEK
Chain of Histamine H1 receptor (P35367 whole entry): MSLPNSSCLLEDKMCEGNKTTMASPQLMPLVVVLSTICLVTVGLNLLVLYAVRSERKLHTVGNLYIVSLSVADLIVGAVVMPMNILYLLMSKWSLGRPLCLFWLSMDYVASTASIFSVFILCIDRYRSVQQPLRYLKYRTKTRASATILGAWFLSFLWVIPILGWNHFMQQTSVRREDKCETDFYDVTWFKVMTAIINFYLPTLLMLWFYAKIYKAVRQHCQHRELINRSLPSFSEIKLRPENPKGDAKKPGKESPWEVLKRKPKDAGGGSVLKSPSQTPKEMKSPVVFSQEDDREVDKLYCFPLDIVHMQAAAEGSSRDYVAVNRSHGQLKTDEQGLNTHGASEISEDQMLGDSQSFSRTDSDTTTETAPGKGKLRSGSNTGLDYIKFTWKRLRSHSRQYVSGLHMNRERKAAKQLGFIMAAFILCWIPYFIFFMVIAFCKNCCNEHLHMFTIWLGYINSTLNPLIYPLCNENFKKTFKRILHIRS

[21] = target: Voltage-gated (volt-dependent) potassium channel (Homo sapiens, UniProt O43525+O43526+O95259+P16389+P17658+P22001+P22459+P22460+P48547+P51787+P56696+Q03721+Q09470+Q12809+Q14003+Q14721+Q16322+Q6PIU1+Q8NCM2+Q8TAE7+Q8TDN1+Q8TDN2+Q92953+Q96KK3+Q96L42+Q96PR1+Q96RP8+Q9BQ31+Q9H252+Q9H3M0+Q9NR82+Q9NS40+Q9NSA2+Q9NZV8+Q9UIX4+Q9UJ96+Q9UK17+Q9ULD8+Q9ULS6+Q9UQ05); experiment: K+ channel (volt-dependent) CEREP ligand profiling; format: protein assay; details: compound concentration 10 uM
[22] = target: Cannabinoid receptor 1 (Homo sapiens) (UniProt P21554); experiment: Cannabinoid CB1 receptor (h) CEREP ligand profiling; details: Compound concentration 10.0 uM
[23] = target: Neuropeptide Y receptor type 1 (Homo sapiens) (UniProt P25929); experiment: Y1 receptor CEREP ligand profiling; details: Compound concentration 10.0 uM
Chain of Neuropeptide Y receptor type 1 (Homo sapiens) (P25929 whole entry): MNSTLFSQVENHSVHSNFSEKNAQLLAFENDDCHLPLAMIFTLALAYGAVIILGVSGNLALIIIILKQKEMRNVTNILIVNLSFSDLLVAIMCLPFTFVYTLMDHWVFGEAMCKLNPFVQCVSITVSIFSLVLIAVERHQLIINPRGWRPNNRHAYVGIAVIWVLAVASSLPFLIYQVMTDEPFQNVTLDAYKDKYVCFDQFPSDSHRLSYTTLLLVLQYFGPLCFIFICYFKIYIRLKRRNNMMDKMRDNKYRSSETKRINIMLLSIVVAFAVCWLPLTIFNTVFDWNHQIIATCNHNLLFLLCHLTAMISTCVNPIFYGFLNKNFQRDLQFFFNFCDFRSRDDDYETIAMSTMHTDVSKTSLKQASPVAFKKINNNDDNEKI

[24] = target: Sodium channel (site 1) (Homo sapiens, UniProt P35498+P35499+Q01118+Q14524+Q15858+Q99250+Q9NY46+Q9UI33+Q9UQD0+Q9Y5Y9); experiment: Na+ channel (site1) CEREP ligand profiling; format: protein assay; details: compound concentration 10 uM
[25] = target: T2, 5-hydroxytryptamine receptor 3A (Homo sapiens) (UniProt P46098); experiment: 5-Hydroxytryptamine3 CEREP ligand profiling; details: Compound concentration 10.0 uM
T2 sequence (whole entry): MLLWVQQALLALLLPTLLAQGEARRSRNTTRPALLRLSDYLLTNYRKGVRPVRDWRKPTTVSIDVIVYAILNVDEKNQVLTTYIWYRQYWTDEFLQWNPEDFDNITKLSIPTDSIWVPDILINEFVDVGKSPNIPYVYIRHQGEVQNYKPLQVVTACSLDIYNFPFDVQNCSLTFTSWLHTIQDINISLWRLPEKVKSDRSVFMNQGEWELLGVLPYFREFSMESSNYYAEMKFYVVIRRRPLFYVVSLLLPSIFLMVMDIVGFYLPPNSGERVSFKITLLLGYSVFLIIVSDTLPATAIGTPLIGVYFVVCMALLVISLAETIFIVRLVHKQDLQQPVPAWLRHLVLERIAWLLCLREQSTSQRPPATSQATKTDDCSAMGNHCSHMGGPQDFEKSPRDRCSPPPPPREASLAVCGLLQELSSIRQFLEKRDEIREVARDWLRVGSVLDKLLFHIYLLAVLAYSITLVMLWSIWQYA

[26] = target: D(1B) dopamine receptor (Homo sapiens) (UniProt P21918); experiment: Dopamine D5 receptor (h) CEREP ligand profiling; details: Compound concentration 10.0 uM
[27] = target: Delta-type opioid receptor (Homo sapiens) (UniProt P41143); experiment: delta-Opioid receptor (h) CEREP ligand profiling; details: Compound concentration 10.0 uM
Chain of Delta-type opioid receptor (Homo sapiens) (P41143 whole entry): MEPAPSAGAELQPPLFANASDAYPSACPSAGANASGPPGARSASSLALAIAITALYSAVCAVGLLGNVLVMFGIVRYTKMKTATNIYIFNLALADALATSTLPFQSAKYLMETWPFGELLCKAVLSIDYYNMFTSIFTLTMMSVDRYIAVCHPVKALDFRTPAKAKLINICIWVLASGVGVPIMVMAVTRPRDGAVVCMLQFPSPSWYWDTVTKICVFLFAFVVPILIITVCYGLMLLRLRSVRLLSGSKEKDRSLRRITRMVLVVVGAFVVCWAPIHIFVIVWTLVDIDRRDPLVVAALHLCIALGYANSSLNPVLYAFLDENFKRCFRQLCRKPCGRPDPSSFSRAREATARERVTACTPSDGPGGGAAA

Chain of 5-hydroxytryptamine receptor 1A (P08908 whole entry): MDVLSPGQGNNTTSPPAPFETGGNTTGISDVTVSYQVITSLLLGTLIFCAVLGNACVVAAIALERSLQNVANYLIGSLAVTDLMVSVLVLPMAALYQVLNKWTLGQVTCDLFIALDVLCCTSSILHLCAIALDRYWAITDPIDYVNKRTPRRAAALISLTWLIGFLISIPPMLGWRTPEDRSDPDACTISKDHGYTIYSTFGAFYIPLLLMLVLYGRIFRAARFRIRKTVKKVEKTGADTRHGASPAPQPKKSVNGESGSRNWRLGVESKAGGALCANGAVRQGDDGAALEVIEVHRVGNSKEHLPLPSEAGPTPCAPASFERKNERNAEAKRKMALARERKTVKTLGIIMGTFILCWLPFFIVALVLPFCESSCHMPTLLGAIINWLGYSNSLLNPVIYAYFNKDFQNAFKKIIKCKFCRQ

## CCCCN(CCCC)C(=O)CN1C[C@@H](c2cc(OC)c3c(c2)OCO3)[C@H](C(=O)O)[C@H]1CC(C)(C)CCC [A-545]
[1]
  Ki: 0.189 µM
[2]
  Ki: 0.0055 µM
[3]
  inhibition: 15.7%
[4]
  inhibition: 56.1%
[5]; read-out: Ki
  Ki: 6.52 µM
[5]; read-out: pKi (converted)
  Ki: 5.82 µM

## CCCCN(CCCC)C(=O)CN1C[C@H](c2cc(OC)c3c(c2)OCO3)[C@@H](C(=O)O)[C@@H]1CC(C)(C)CCC [ABT-546]
[6]
  inhibition: < 10%
[7]
  inhibition: < 10%
[8]
  inhibition: < 10%
[9]
  inhibition: < 10%
[10]
  inhibition: < 10%
[11]
  inhibition: < 10%
[12]
  inhibition: < 10%
[13]
  inhibition: < 10%
[14]
  inhibition: < 10%
[15]
  inhibition: < 10%
[16]
  inhibition: 14%
[17]
  inhibition: < 10%
[18]
  inhibition: < 10%
[19]
  inhibition: -5.72%
[20]
  Ki: 10 µM
[21]
  inhibition at 10 µM: < 10% (not active)
[22]
  inhibition: < 10%
[23]
  inhibition: < 10%
[24]
  inhibition at 10 µM: 22% (not active)
[25]
  inhibition: < 10%
[26]
  inhibition: < 10%
[27]
  inhibition: 62%
